Assay results from the Deep4Chem optical property database.
Blank lines part the entries; values can stand above or below the compound they belong to.

Assay: photoluminescence quantum yield (fraction); solvent given as SMILES

Compound: N#Cc1c(C#N)c2cc(Cl)c(Cl)cc2c2cc(Cl)c(Cl)cc12
photoluminescence quantum yield (in ClC(Cl)Cl): 0.01

Compound: CC1=C(C)C(c2c(C)c(C)c3n2[B-](F)(F)[N+]2=C(C)C(C)=C(C)C2=C3)=[N+]2C1=Cc1c(C)c(C)c(C)n1[B-]2(F)F
photoluminescence quantum yield (in ClCCl): 0.7

Compound: CCCC1=Cc2nc1ccc1[nH]c(cc1CCC)c1nc(ccc3[nH]c2cc3CCC)C(CCC)=C1
photoluminescence quantum yield (in Cc1ccccc1): 0.38

Compound: CN(C)c1ccc(C2=Nc3scc[n+]3[B-](F)(F)O2)cc1
photoluminescence quantum yield (in C1CCOC1): 0.99 | photoluminescence quantum yield (in CC#N): 0.1 | photoluminescence quantum yield (in Cc1ccccc1): 0.99 | photoluminescence quantum yield (in ClCCl): 0.86

Compound: CN1c2ccc(C(=O)c3ccccc3)cc2Sc2cc(C(=O)c3ccccc3)ccc21
photoluminescence quantum yield (in C1CCCCC1): 0.43 | photoluminescence quantum yield (in C1CCOC1): 0.28 | photoluminescence quantum yield (in CN(C)C=O): 0.18 | photoluminescence quantum yield (in Cc1ccccc1): 0.4 | photoluminescence quantum yield (in ClC(Cl)Cl): 0.21 | photoluminescence quantum yield (in ClCCl): 0.23

Compound: O=C([O-])c1ccc(C2=c3cc4c5c(c3Oc3c2cc2c6c3CCCN6CCC2)CCC[N+]=5CCC4)c(C(=O)[O-])c1
photoluminescence quantum yield (in CCO): 0.79 | photoluminescence quantum yield (in O): 0.6

Compound: COc1ccc(C#Cc2c(C#Cc3ccc(OC)cc3)c(C#Cc3ccc(OC)cc3)c(C#Cc3ccc(OC)cc3)c(C#Cc3ccc(OC)cc3)c2C#Cc2ccc(OC)cc2)cc1
photoluminescence quantum yield (in ClCCl): 0.55

Compound: CC1=CC(C)=[N+]2C1=Cc1c(C)cc(C)n1[B-]2(F)F
photoluminescence quantum yield (in CCCCCC): 0.96 | photoluminescence quantum yield (in CO): 0.99 | photoluminescence quantum yield (in ClCCl): 0.92

Compound: Cc1ccc(N2C(c3ccccc3N)=NC(c3ccccc3)C2c2ccccc2)cc1 (configuration not stated)
photoluminescence quantum yield (in Cc1ccccc1): 0.009

Compound: CC(=O)c1c(N[C@H](C(=O)O)C(C)C)c2ccc(N(C)C)cc2oc1=O
photoluminescence quantum yield (in ClCCl): 0.004

Compound: O=Cc1c(O)c(-c2nc3ccccc3s2)cc2ccccc12
photoluminescence quantum yield (in C1CCOC1): 0.066 | photoluminescence quantum yield (in CC#N): 0.052 | photoluminescence quantum yield (in CC(C)=O): 0.053 | photoluminescence quantum yield (in CCO): 0.07 | photoluminescence quantum yield (in CCOC(C)=O): 0.068 | photoluminescence quantum yield (in CN(C)C=O): 0.077 | photoluminescence quantum yield (in CO): 0.061 | photoluminescence quantum yield (in Cc1ccccc1): 0.068 | photoluminescence quantum yield (in ClC(Cl)Cl): 0.065 | photoluminescence quantum yield (in ClCCl): 0.109

Compound: Cc1ccc(-n2c3ccccc3c3cc(C(=C(C#N)C#N)c4ccccc4)ccc32)cc1
photoluminescence quantum yield (in C1CCOC1): 0.12 | photoluminescence quantum yield (in CC#N): 0.07 | photoluminescence quantum yield (in CC(C)=O): 0.05 | photoluminescence quantum yield (in CCOC(C)=O): 0.09 | photoluminescence quantum yield (in CO): 0.01 | photoluminescence quantum yield (in CS(C)=O): 0.02 | photoluminescence quantum yield (in Cc1ccccc1): 0.14 | photoluminescence quantum yield (in ClC(Cl)Cl): 0.13

Compound: CCCCCCCCn1c2cc(/C=C/c3ccc(N(c4ccccc4)c4ccccc4)cc3)ccc2c2cc3c(cc21)c1ccc(/C=C/c2ccc(N(c4ccccc4)c4ccccc4)cc2)cc1n3CCCCCCCC
photoluminescence quantum yield (in Cc1ccccc1): 0.62

Compound: c1ccc(-c2nc(-c3ccccc3)nc(-c3cc(-n4c5ccccc5c5ccccc54)cc(-n4c5ccccc5c5ccccc54)c3)n2)cc1
photoluminescence quantum yield (in O=P(c1ccccc1)(c1ccccc1)c1ccc2oc3ccc(P(=O)(c4ccccc4)c4ccccc4)cc3c2c1): 0.58

Compound: N#CC1=c2cc3c4c(c2Oc2c1cc1c5c2CCCN5CCC1)CCC[N+]=4CCC3
photoluminescence quantum yield (in CCO): 0.25

Compound: CN(C)c1ccc(-c2nc3c(c4c2-c2ccccc2CC4)-c2ccccc2CC3)cc1
photoluminescence quantum yield (in C1CCOC1): 0.396 | photoluminescence quantum yield (in CC#N): 0.182 | photoluminescence quantum yield (in CCCCCC): 0.05 | photoluminescence quantum yield (in CCOC(C)=O): 0.164 | photoluminescence quantum yield (in CO): 0.08 | photoluminescence quantum yield (in CS(C)=O): 0.215 | photoluminescence quantum yield (in Cc1ccccc1): 0.112 | photoluminescence quantum yield (in ClCCl): 0.269

Compound: CC(C)(C)C1CCC(=CS/C=C/c2ccc(/C=C/SC=C3CCC(C(C)(C)C)CC3)cc2)CC1 (configuration not stated)
photoluminescence quantum yield (in ClCCl): 0.031

Compound: CC(C)(C)c1ccc(C2=CC3=C(c4ccccc4)c4cc(-c5ccc(C(C)(C)C)cc5)c(-c5ccc(C(C)(C)C)cc5)n4[B-](F)(F)[N+]3=C2c2ccc(C(C)(C)C)cc2)cc1
photoluminescence quantum yield (in C1CCCCC1): 0.33 | photoluminescence quantum yield (in C1CCOC1): 0.28 | photoluminescence quantum yield (in CC#N): 0.29 | photoluminescence quantum yield (in Cc1ccccc1): 0.43 | photoluminescence quantum yield (in ClCCl): 0.3

Compound: c1ccc(-n2c(-c3cccc4ccccc34)nc3c4ccccc4c4ccccc4c32)cc1
photoluminescence quantum yield (in Cc1ccccc1): 0.79

Compound: Cc1cccc2nc3[nH]c(=O)[nH]c(=O)c3nc12
photoluminescence quantum yield (in CC#N): 0.017

Compound: N#Cc1ccc(-n2c3ccccc3c3c2c2ccccc2n3-c2ccccc2)cc1
photoluminescence quantum yield (in Cc1ccccc1): 0.143

Compound: Cc1ccc(C2=C3C=CC(/C=C/c4ccccc4)=[N+]3[B-](F)(F)n3c(Cl)ccc32)cc1
photoluminescence quantum yield (in C1CCCCC1): 0.72 | photoluminescence quantum yield (in C1CCOC1): 0.56 | photoluminescence quantum yield (in C1COCCO1): 0.6 | photoluminescence quantum yield (in CCOC(C)=O): 0.57 | photoluminescence quantum yield (in CO): 0.55 | photoluminescence quantum yield (in Cc1ccccc1): 0.69 | photoluminescence quantum yield (in ClC(Cl)Cl): 0.68

Further lines, results first:

photoluminescence quantum yield (in CC#N): 0.0073 | photoluminescence quantum yield (in CC(C)O): 0.029 | photoluminescence quantum yield (in CCCCO): 0.023 | photoluminescence quantum yield (in CCCO): 0.021 | photoluminescence quantum yield (in CCO): 0.02 | photoluminescence quantum yield (in CO): 0.011
Compound: COc1cccc2c1C(=O)c1ccccc1-2

photoluminescence quantum yield (in C1CCCCC1): 0.05
Compound: CCCCc1cc2cccc[n+]2[b-]2ccc(-c3cc[b-]4c(c3)c(CCCC)cc3cccc[n+]43)cc21

photoluminescence quantum yield (in C1CCOC1): 0.021
Compound: CC(C)(C)c1ccc(C2=C(c3ccc(N4c5ccccc5C(C)(C)c5ccccc54)cc3)S(=O)(=O)c3c2sc(-c2ccc(N4c5ccccc5C(C)(C)c5ccccc54)cc2)c3-c2ccc(C(C)(C)C)cc2)cc1

photoluminescence quantum yield (in CCO): 0.049 | photoluminescence quantum yield (in CS(C)=O): 0.023 | photoluminescence quantum yield (in O): 0.007
Compound: CC1(C)C(/C=C/c2cc3ccc(O)cc3oc2=O)=[N+](CCCS(=O)(=O)[O-])c2ccccc21

photoluminescence quantum yield (in ClCCl): 0.781
Compound: CC(C)(C)c1ccc2ccc3cc(-c4ccc5c(-c6ccc7c(ccc8ccc(C(C)(C)C)cc87)c6)cc6c7cc(-c8ccc9c(ccc%10ccc(C(C)(C)C)cc%109)c8)ccc7c(-c7ccc8c(ccc9ccc(C(C)(C)C)cc98)c7)cc6c5c4)ccc3c2c1

photoluminescence quantum yield (in CCO): 0.17
Compound: CCOC(=O)c1cc(C(=O)OCC)c2cccc(O)c2n1

photoluminescence quantum yield (in ClCCl): 0.00091
Compound: COC(=O)C1=C(C(=O)OC)C2(c3ccccc3-c3c(Br)cc(Br)cc32)C2(/C=C/c3ccccc3)c3cc(OC)c(OC)cc3CCN12 (configuration not stated)

photoluminescence quantum yield (in ClC(Cl)Cl): 0.35
Compound: Cc1cc(C)c(C2=C3C=CC=[N+]3[B-]3(F)Oc4cc(O)cc5c6ccc(C)cc6c6cc2n3c6c45)c(C)c1 (configuration not stated)

photoluminescence quantum yield (in C1COCCO1): 0.42 | photoluminescence quantum yield (in CC#N): 0.18 | photoluminescence quantum yield (in CCCCOCCCC): 0.35 | photoluminescence quantum yield (in CCOC(C)=O): 0.23
Compound: Clc1nc(Nc2ccccc2)nc(Nc2ccc3cc4ccccc4cc3c2)n1

photoluminescence quantum yield (in ClCCl): 0.18
Compound: CC(=O)c1cc(=O)n(C)c2cc(-c3ccc(N(C)C)cc3)sc12

photoluminescence quantum yield (in ClCCl): 0.21
Compound: C(=C\c1ncc2ccccc2n1)/c1ccc(N2CCCCC2)cc1

photoluminescence quantum yield (in CC#N): 0.56 | photoluminescence quantum yield (in CCCCCC): 0.12 | photoluminescence quantum yield (in CO): 0.5 | photoluminescence quantum yield (in c1ccccc1): 0.46
Compound: O=c1oc2ccc3ccccc3c2nc1-c1ccccc1

photoluminescence quantum yield (in ClC(Cl)Cl): 0.9
Compound: CCCCCCCCCCCCOc1ccc(C2=C3C(=O)N(CC(OCC)OCC)C(c4ccc(OCCCCCCCCCCCC)c(OCCCCCCCCCCCC)c4)=C3C(=O)N2CC(OCC)OCC)cc1OCCCCCCCCCCCC

photoluminescence quantum yield (in C1CCCCC1): 0.94
Compound: COc1cccc(OC)c1-c1c2ccccc2c(-c2c(OC)cccc2OC)c2ccccc12

photoluminescence quantum yield (in CC#N): 0.1
Compound: COC(=O)c1c(NC(C)(C)C)oc(-c2ccccc2)c1C(=O)OC

photoluminescence quantum yield (in C1CCOC1): 0 | photoluminescence quantum yield (in C1COCCO1): 0.072 | photoluminescence quantum yield (in CC#N): 0.28 | photoluminescence quantum yield (in CCCO): 0.37 | photoluminescence quantum yield (in CCO): 0.15 | photoluminescence quantum yield (in CN(C)C=O): 0.36 | photoluminescence quantum yield (in CO): 0.24 | photoluminescence quantum yield (in CS(C)=O): 0.47 | photoluminescence quantum yield (in ClC(Cl)Cl): 0.053 | photoluminescence quantum yield (in ClCCl): 0.037
Compound: COc1ccc(/C=C/C(=O)c2ccccc2O)cc1OC

photoluminescence quantum yield (in ClCCl): 0.03
Compound: CC(C)(C)NC(=O)c1cccc2ccc3c4ccccc4c4ccccc4c3c12

photoluminescence quantum yield (in ClCCl): 0.02
Compound: Brc1ccc(/C=C/c2cnc3ccccc3n2)cc1

photoluminescence quantum yield (in ClCCl): 0.1
Compound: C[Si]1(C)c2ccc(-c3ccc(-c4cccs4)s3)cc2C=Cc2cc(-c3ccc(-c4cccs4)s3)ccc21

photoluminescence quantum yield (in C1CCOC1): 0.51 | photoluminescence quantum yield (in CO): 0.44
Compound: CCOC(=O)C1=CN(c2ccccc2)C=C(C(=O)OCC)C1c1ccccc1

photoluminescence quantum yield (in CO): 0.69
Compound: CCN(C)c1ccc(C2=C3C(C)=CC(/C=C/c4ccc(OCCCN=[N+]=[N-])cc4)=[N+]3[B-](F)(F)n3c(C)cc(C)c32)cc1

photoluminescence quantum yield (in ClC(Cl)Cl): 0.49
Compound: COc1ccc(-c2cc(-c3ccc(N(C)C)cc3)nc(-c3ccccc3)n2)cc1

photoluminescence quantum yield (in CCOC(C)=O): 0.6
Compound: CCn1ncc2c3c(C#N)c4c5ccccc5n(CC)c4nc3ccc21
